In patent US20070032477A1, “Pteridine derivatives useful for making pharmaceutical compositions” (priority 2003, published 2007):

Tests used:
[1] = tested on: production of TNF-α by PBMC in response to stimulation by LPS; experiment: TNF-α assay; format: cell-based, human; settings: LPS 1 μg/ml, 72 hours, sandwich ELISA
In short: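 Cells were LPS-stimulated (1 μg/ml final) peripheral blood mononuclear cells at 10^6/ml, exposed 72 h at 37 °C to 0.1, 1 or 10 μM test compound.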

[2] = tested on: mixed lymphocyte reaction (PBMC with allogeneic PBMC or Eppstein-Barr Virus-transformed human B cells as stimulator cells); experiment: Mixed lymphocyte reaction (MLR) assay; format: cell-based; settings: lowest concentration giving 50% suppression of the MLR; [3H]-thymidine
[3] = tested on: production of IL-1 β by PBMC in response to stimulation by LPS; experiment: IL-1 β assay; format: cell-based, human; settings: LPS 1 μg/ml, 72 hours, sandwich ELISA
Procedure: Peripheral blood mononuclear cells (herein referred as PBMC), in response to stimulation by lipopolysaccharide (LPS), a gram-negative bacterial endotoxin, produce various […], in particular human IL-1 β. Inhibition of the activation of PBMC can therefore be measured by the level of suppression of the production of IL-1 β by PBMC in response to stimulation by LPS.
Such inhibition measurement was performed as follows: PBMC were isolated from heparinized peripheral blood by density gradient centrifugation over Lymphoprep (commercially available from Nycomed, Norway). LPS was then added to the PMBC suspension in complete medium (10^6 cells/ml) at a final concentration of 1 μg/ml. The pteridine derivative to be tested was added at different concentrations (0.1 μM, 1 μM and 10 μM) and the cells were incubated at 37° C. for 72 hours in 5% CO2. The supernatants were collected, then IL-1 β concentrations were measured with an anti-IL-1 β antibody in a sandwich ELISA. The calorimetric reading of the ELISA was measured by a Multiskan RC plate reader (commercially available from ThermoLabsystems, Finland) at 450 nm (reference wavelength: 690 nm). Data analysis was performed with Ascent software 2.6. (also from ThermoLabsystems, Finland): a standard curve (recombinant human IL-1 β) was drawn and the amount (pg/ml) of each sample on the standard curve was determined.
The % suppression of human IL-1 β by the pteridine derivatives (drugs) of this invention was calculated using the formula: [formula]

[4] = tested on: CII induced rheumatoid arthritis in DBA mice; experiment: Collagen type II induced model of rheumatoid arthritis; settings: mice in vivo; example 17 up to 40 mg/kg/day; methotrexate 10 mg/kg/day, 3 times a week
Text: Collagen type II (hereinafter referred as CII) induced experimental model of rheumatoid arthritis (hereinafter referred as RA) in DBA mice is widely accepted as the most relevant and predictive preclinical model for RA. In this model, DBA mice are immunized with CII, the collagen type mainly present in the joint structures, together with complete Freund Adjuvant in their tail. 2 to 3 weeks later, several of the immunized mice start to develop arthritis in the four footpaths. In order to further worsen the disease, mice are given a second CII boost at three weeks after the first immunisation, this time however in a footpath. Because the immune system is already immunised in these mice, this rapidly provokes a severe swelling of the injected footpath (named Delayed Type Hypersensitivity or DTH) which can be used as a measurement for T-cell activation. Within a few days after the booster, almost all untreated animals start developing symptoms of arthritis. RA development is scored from 0 to 16 (16 being severe clinical arthritis in all four footpaths). At the end of the study (3 weeks after the CII boost) antibody formation was determined against CII and histology performed on the footpaths.
The efficiency of the pteridine derivative of example 17 (administered in an amount of 20 mg/kg/day, started one day before the CII boost) was explored in this CII-model.

Compound | IC50 [1] [nM] | IC50 [2] [nM] | IC50 [3] [nM] | mortality or cytotoxic effect on increasing the dose [4]
COc1ccc(-c2cnc3nc(N)nc(N4CCN(c5ccc(C)cc5)CC4)c3n2)cc1OC [Example 176, 2-amino-6-(3,4-dimethoxyphenyl)-4-((4-methylphenyl)-piperazin-1-yl)pteridine] | < 10 | 300 | 4900 | 
COc1ccc(-c2cnc3nc(N)nc(N4CCN(C(=O)COc5ccccc5)CC4)c3n2)cc1OC [Example 17, 2-amino-4-[(N-phenoxyacetyl)-piperazin-1-yl]-6-(3,4-dimethoxy-phenyl)pteridine] | 80 | 3.8 | 2800 | no mortality or cytotoxic effect
